ChEMBL document CHEMBL2439949, “Synthesis and structure-activity relationships of phenyl-substituted coumarins with anti-tubercular activity that target FadD32” (Bioorg Med Chem Lett, 2013)
Values after ≈ are worked out from the molar mass of the structure shown. Active and inactive are the calls of the source. The rule behind the calls is not given here.

Columns and labels:
[1] = test system: Mycobacterium tuberculosis; assay: Antimycobacterial activity against Mycobacterium tuberculosis H37Rv after 7 days; format: functional; settings: 168 h
[2] = test system: HepG2; assay: Cytotoxicity against human HepG2 cells at 125 uM after 48 hrs; format: cell-based; settings: hepg2, 48 h
[3] = test system: Mycobacterium tuberculosis; assay: Antimycobacterial activity against Mycobacterium tuberculosis H37Rv at 64 uM after 7 days; format: functional, organism-based
[4] = Metabolic stability of the compound in human plasma assessed as compound remaining at 1 uM after 5 hrs; format: ADME, cell-free; settings: read-out: Stability
[5] = Solubility in water; format: physicochemical
[6] = Plasma protein binding in human at 1 uM after 5 hrs; format: ADME, cell-free; settings: read-out: PPB (converted)
[7] = test system: Mycobacterium tuberculosis; assay: Antimycobacterial activity against Mycobacterium tuberculosis H37Rv at 62 uM after 7 days; format: functional, organism-based
[8] = Oral bioavailability in Balb/c mouse at 10 mg/kg; format: ADME, organism-based; settings: in vivo
[9] = MRTlast in Balb/c mouse at 10 mg/kg, po; format: ADME, organism-based; parameters: dose 10 mg/kg, route oral; settings: in vivo
[10] = test system: Mus musculus; assay: Volume of distribution in Balb/c mouse at 10 mg/kg, po; format: ADME, organism-based; parameters: dose 10 mg/kg, route oral; settings: in vivo
[11] = Clearance in Balb/c mouse at 10 mg/kg, po; format: ADME, organism-based; parameters: dose 10 mg/kg, route oral; settings: in vivo
[12] = AUC (0 to infinity) in Balb/c mouse at 10 mg/kg, po; format: ADME, organism-based; parameters: time infinity, dose 10 mg/kg, route oral; settings: plasma
[13] = AUClast in Balb/c mouse at 10 mg/kg, po; format: ADME, organism-based; parameters: time 0 - last, dose 10 mg/kg, route oral; settings: plasma
[14] = test system: Mus musculus; assay: Initial plasma concentration in Balb/c mouse at 10 mg/kg, po; format: ADME, organism-based; parameters: dose 10 mg/kg, route oral; settings: in vivo
[15] = Tmax in Balb/c mouse at 10 mg/kg, po; format: ADME, organism-based; parameters: dose 10 mg/kg, route oral; settings: in vivo
[16] = MRTlast in Balb/c mouse at 1 mg/kg, iv; format: ADME, organism-based; parameters: dose 1 mg/kg, route intravenous; settings: in vivo
[17] = Half life in Balb/c mouse at 10 mg/kg, po; format: ADME, organism-based; parameters: dose 10 mg/kg, route oral; settings: in vivo
[18] = Volume of distribution in Balb/c mouse at 1 mg/kg, iv; format: ADME, organism-based; parameters: dose 1 mg/kg, route intravenous; settings: in vivo
[19] = Clearance in Balb/c mouse at 1 mg/kg, iv; format: ADME, organism-based; parameters: dose 1 mg/kg, route intravenous; settings: in vivo
[20] = AUClast in Balb/c mouse at 1 mg/kg, iv; format: ADME, organism-based; parameters: time 0 - last, dose 1 mg/kg, route intravenous; settings: plasma
[21] = AUC (0 to infinity) in Balb/c mouse at 1 mg/kg, iv; format: ADME, organism-based; parameters: time infinity, dose 1 mg/kg, route intravenous; settings: plasma
[22] = Tmax in Balb/c mouse at 1 mg/kg, iv; format: ADME, organism-based; parameters: dose 1 mg/kg, route intravenous; settings: in vivo
[23] = Initial plasma concentration in Balb/c mouse at 1 mg/kg, iv; format: ADME, organism-based; parameters: dose 1 mg/kg, route intravenous
[24] = Half life in Balb/c mouse at 1 mg/kg, iv; format: ADME, organism-based; parameters: dose 1 mg/kg, route intravenous; settings: in vivo
[25] = Permeability of the compound from basolateral to apical side of human Caco2 cells at 10 uM; format: ADME, cell-based; settings: Caco-2, read-out: permeability
[26] = Permeability of the compound from apical to basolateral side of human Caco2 cells at 10 uM; format: ADME, cell-based; settings: Caco-2, read-out: permeability
[27] = Metabolic stability of the compound in Balb/c mouse plasma assessed as compound remaining at 1 uM after 8 hrs; format: ADME, cell-free; settings: read-out: Stability
[28] = Intrinsic clearance in Balb/c mouse liver microsomes at 100 uM; format: ADME, Microsome; settings: read-out: CLH
[29] = Half life in Balb/c mouse liver microsomes at 100 uM; format: ADME, Microsome
[30] = Cytotoxicity against human HepG2 cells after 48 hrs; format: cell-based; settings: read-out: LD50
[31] = test system: Mycobacterium tuberculosis; assay: Antimycobacterial activity against Mycobacterium tuberculosis H37Rv at 250 uM after 7 days; format: functional

Work on `CCCCCCNCc1ccc(-c2c(C)cc3oc(=O)cc(-c4ccccc4)c3c2C)cc1` yielded an IC90 [1] of 4 µM.

For `Cc1cc2oc(=O)cc(-c3cccnc3)c2c(C)c1-c1ccc(CN2CCOCC2)cc1`, the Activity [2] was “Non-toxic” and the IC90 [1] was 1 µM.

In the case of `Cc1cc2oc(=O)cc(-c3ccccc3)c2c(C)c1-c1cccc(C(F)(F)F)c1`, the Activity [3] is reported as “inactive”.

`Cc1cc2oc(=O)cc(-c3cccc(NS(C)(=O)=O)c3)c2c(C)c1-c1ccc(CN2CCOCC2)cc1` gave an IC90 [1] of 59 µM.

In the case of `Cc1cc2oc(=O)cc(-c3ccccc3)c2c(C)c1-c1ccccc1Cl`, the Activity [2] is reported as “Non-toxic” and the IC90 [1] is reported as 22 µM.

For `Cc1cc(CO)ccc1-c1c(C)cc2oc(=O)cc(-c3ccccc3)c2c1C`, the Activity [2] was “Non-toxic” and the IC90 [1] was 22 µM.

Work on `Cc1cc2oc(=O)cc(-c3ccccc3)c2c(C)c1-c1ccc(CO)cc1` yielded a remaining at 5 h, 1 µM [4] of 80.3%, a solubility [5] of 0.2 µM (≈ 0.0713 µg/mL) and a fraction unbound at 5 h, 1 µM [6] of 0.006. The Activity [2] was “Non-toxic” and the IC90 [1] was 7 µM.

For `Cc1cc(-c2c(C)cc3oc(=O)cc(-c4ccccc4)c3c2C)ccn1`, the IC90 [1] was 36 µM.

With `CC(=O)Nc1cccc(-c2cc(=O)oc3cc(C)c(-c4ccc(CN5CCOCC5)cc4)c(C)c23)c1` the Activity [2] was “Non-toxic” and the IC90 [1] was 12 µM.

Work on `Cc1cc2oc(=O)cc(-c3ccccc3)c2c(C)c1-c1ccc(Cl)cc1` yielded an IC90 [1] of 54 µM.

For `Cc1cc2oc(=O)cc(-c3ccccc3)c2cc1-c1ccc(CO)cc1`, the IC90 [1] was 68 µM.

`CC(=O)c1ccc(-c2c(C)cc3oc(=O)cc(-c4ccccc4)c3c2C)cc1` showed an IC90 [1] of 220 µM.

Work on `Cc1cc2oc(=O)cc(-c3ccccc3)c2c(C)c1-c1ccc(F)cc1` yielded an IC90 [1] of 26 µM.

`Cc1cc2oc(=O)cc(-c3ccccc3)c2c(C)c1-c1cccc(F)c1` showed an IC90 [1] of 21 µM.

With `Cc1cc2oc(=O)cc(-c3ccccc3)c2c(C)c1-c1ccc(C#N)cc1` the IC90 [1] was 295 µM.

In the case of `COc1ccc(C2=CC(=O)Cc3cc(C)c(-c4ccc(CN5CCOCC5)cc4)c(C)c32)cc1`, the Activity [7] is reported as “inactive”.

`Cc1c(-c2ccc(CO)cc2)ccc2oc(=O)cc(-c3ccccc3)c12` showed an IC90 [1] of 70 µM.

For `Cc1cc(-c2ccc3oc(=O)cc(-c4ccccc4)c3c2)c(C)cc1CO`, the IC90 [1] was 170 µM.

For `Cc1cc2oc(=O)cc(-c3ccccc3)c2c(C)c1Br`, the Activity [3] was “inactive”.

In the case of `CCOC(=O)Nc1cccc(-c2cc(=O)oc3cc(C)c(-c4ccc(CN5CCOCC5)cc4)c(C)c23)c1`, the IC90 [1] is reported as 39 µM.

`Cc1cc2oc(=O)cc(-c3ccccc3)c2c(C)c1-c1cccc(Cl)c1` gave an IC90 [1] of 260 µM.

For `Cc1cc2oc(=O)cc(-c3cccc([N+](=O)[O-])c3)c2c(C)c1-c1ccc(CN2CCOCC2)cc1`, the Activity [2] was “Non-toxic” and the IC90 [1] was 6 µM.

`Cc1cc2oc(=O)cc(-c3ccccc3)c2c(C)c1-c1cncnc1` gave an IC90 [1] of 8 µM.

For `COc1ccccc1-c1c(C)cc2oc(=O)cc(-c3ccccc3)c2c1C`, the Activity [3] was “inactive”.

With `O=c1cc(-c2ccccc2)c2cc(-c3ccc(CO)cc3)ccc2o1` the IC90 [1] was 115 µM.

For `Cc1cc2oc(=O)cc(-c3ccccc3)c2c(C)c1-c1ccc(C(C)O)cc1` (stereo not drawn), the Activity [2] was “Non-toxic” and the IC90 [1] was 4 µM.

With `Cc1cc2oc(=O)cc(-c3cccc(N)c3)c2c(C)c1-c1ccc(CN2CCOCC2)cc1.Cl.Cl` the bioavailability [8] was 62%, the MRT last [9] was 4.31 h and the Vd [10] was 12.25 L/kg. For the same compound, the CL/F [11] was 52.3 mL/min/kg, the AUC(0-inf) [12] was 3190 ng·h/mL and the AUC(0-t) [13] was 3180 ng·h/mL. For the same compound, the C0 [14] was 642.06 ng/mL, the Tmax [15] was 2 h and the MRT last [16] was 1.36 h. It also gave a half-life [17] of 2.71 h, a Vd [18] of 3.91 L/kg and a clearance [19] of 31.1 mL/min/kg. The AUC(0-t) [20] was 513 ng·h/mL, the AUC(0-inf) [21] was 536 ng·h/mL and the Tmax [22] was 4.98 min. The C0 [23] was 851 ng/mL, the half-life [24] was 1.45 h and the Papp B→A at 10 µM [25] was 76.9 ×10⁻⁶ cm/s. The Papp A→B at 10 µM [26] was 34.5 ×10⁻⁶ cm/s, the remaining at 8 h, 1 µM [27] was 112% and the CLint scaled at 100 µM [28] was 80.3 mL/min/kg. For the same compound, the half-life at 100 µM [29] was 8.63 h.

`Cc1cc2oc(=O)cc(-c3ccccc3)c2c(C)c1-c1ccncc1` showed a remaining at 5 h, 1 µM [4] of 83.5%, a solubility [5] of 3.2 µM (≈ 1.05 µg/mL) and a fraction unbound at 5 h, 1 µM [6] of 0.012. The Activity [2] was “Non-toxic” and the IC90 [1] was 2 µM.

Compound `Cc1cc2oc(=O)cc(-c3ccccc3)c2c(C)c1-c1ccc(C(F)(F)F)cc1` has an IC90 [1] of 29 µM.

`Cc1ccc(/C=C/c2c(C)cc3oc(=O)cc(-c4ccccc4)c3c2C)cc1` showed an IC90 [1] of 61 µM.

With `COC(=O)c1cccc(-c2cc(=O)oc3cc(C)c(-c4ccc(CN5CCOCC5)cc4)c(C)c23)c1` the IC90 [1] was 59 µM.

Compound `Cc1cc(C)c2c(-c3ccccc3)cc(=O)oc2c1` has an IC90 [1] of 1100 µM.

With `Cc1cc2oc(=O)cc(-c3ccccc3)c2c(C)c1-c1ccc(CN2CCN(C)CC2)cc1` the Activity [2] was “Non-toxic” and the IC90 [1] was 5.89 µM.

In the case of `Cc1ccc(-c2c(C)cc3oc(=O)cc(-c4ccccc4)c3c2C)cc1`, the IC90 [1] is reported as 36 µM.

With `Cc1cc2oc(=O)cc(-c3ccccc3)c2c(C)c1-c1ccc(CNC2CCCCC2)cc1` the Activity [2] was “Non-toxic”, the CC50 at 48 h [30] was 32 µM and the IC90 [1] was 5 µM.

For `Cc1cc2oc(=O)cc(-c3ccc(N)cc3)c2c(C)c1-c1ccc(CN2CCOCC2)cc1`, the IC90 [1] was 14 µM.

With `Cc1cc2oc(=O)cc(-c3ccccc3)c2c(C)c1-c1ccc(C)c2ccccc12` the Activity [3] was “inactive”.

In the case of `CNC(=O)c1ccc(-c2c(C)cc3oc(=O)cc(-c4ccccc4)c3c2C)cc1`, the Activity [2] is reported as “Non-toxic” and the IC90 [1] is reported as 7 µM.

With `Cc1cc2oc(=O)cc(-c3ccccc3)c2c(C)c1-c1ccc(CN2CCOCC2)cc1` the remaining at 5 h, 1 µM [4] was 84.4%, the solubility [5] was 36.1 µM (≈ 15.4 µg/mL) and the fraction unbound at 5 h, 1 µM [6] was 0.014. For the same compound, the Activity [2] was “Non-toxic” and the IC90 [1] was 0.5 µM.

Work on `Cc1ccc(-c2ccc3oc(=O)cc(-c4ccccc4)c3c2)cc1` yielded an inhibition at 250 µM ([31]; 168 h) of 24%.

In the case of `Cc1cc2oc(=O)cc(-c3ccccc3)c2c(C)c1-c1cccnc1`, the IC90 [1] is reported as 69 µM.

Work on `C=Cc1ccc(-c2c(C)cc3oc(=O)cc(-c4ccccc4)c3c2C)cc1` yielded an IC90 [1] of 184 µM.

In the case of `Cc1ccc(-c2c(C)cc3oc(=O)cc(C)c3c2C)cc1`, the inhibition [31] is reported as “inactive”.

For `Cc1cc2oc(=O)cc(-c3ccccc3)c2c(C)c1-c1ccc(CN2CCCCC2)cc1`, the Activity [2] was “Non-toxic” and the IC90 [1] was 19 µM.

For `Cc1cc2oc(=O)cc(-c3cccc(N)c3)c2c(C)c1-c1ccc(CN2CCOCC2)cc1`, the remaining at 5 h, 1 µM [4] was 88%, the solubility [5] was 89.3 µM (≈ 39.3 µg/mL) and the fraction unbound at 5 h, 1 µM [6] was 0.013. The IC90 [1] was 0.4 µM.

Work on `COc1cccc(-c2c(C)cc3oc(=O)cc(-c4ccccc4)c3c2C)c1` yielded an IC90 [1] of 31 µM.
